According to patent publication US10022376B2 (Pfizer Inc., priority 2014, dated 2018):
Counter-ions that a name gives are not always drawn.

Experiments:
[1] = test system: rhIFNγ stimulated STAT-3 phosphorylation in the A549 human epithelial cell line; test: A549 Cell Assay: Inhibition of pSTAT3; type: cell-based; details: A549 cells
Summary of the method: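 Percent inhibition of STAT3 Tyr705 phosphorylation was measured by MSD immunoassay of cell lysates. A549 cells were given compound for 1 h at 37° C (final 0.3 nM to 10 μM, 0.1% DMSO, in 0.2% BSA DMEM), followed by 30 min of rhIFNγ stimulation at 20 ng/mL final. Unstimulated DMSO wells served as background.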

JAK1 = JAK1 (Homo sapiens (Human), UniProt P23458); test: JAK Caliper Enzyme Assay at 1 mM ATP (JAK1); type: biochemical; details: Caliper assay at 1 mM ATP
JAK3 = JAK3 (Homo sapiens (Human), UniProt P52333); test: JAK Caliper Enzyme Assay at 1 mM ATP (JAK3); type: biochemical; details: Caliper assay at 1 mM ATP
TYK2 = TYK2 (Homo sapiens (Human), UniProt P29597); test: JAK Caliper Enzyme Assay at 1 mM ATP (TYK2); type: biochemical; details: Caliper assay at 1 mM ATP
Chain of TYK2 (P29597 whole entry): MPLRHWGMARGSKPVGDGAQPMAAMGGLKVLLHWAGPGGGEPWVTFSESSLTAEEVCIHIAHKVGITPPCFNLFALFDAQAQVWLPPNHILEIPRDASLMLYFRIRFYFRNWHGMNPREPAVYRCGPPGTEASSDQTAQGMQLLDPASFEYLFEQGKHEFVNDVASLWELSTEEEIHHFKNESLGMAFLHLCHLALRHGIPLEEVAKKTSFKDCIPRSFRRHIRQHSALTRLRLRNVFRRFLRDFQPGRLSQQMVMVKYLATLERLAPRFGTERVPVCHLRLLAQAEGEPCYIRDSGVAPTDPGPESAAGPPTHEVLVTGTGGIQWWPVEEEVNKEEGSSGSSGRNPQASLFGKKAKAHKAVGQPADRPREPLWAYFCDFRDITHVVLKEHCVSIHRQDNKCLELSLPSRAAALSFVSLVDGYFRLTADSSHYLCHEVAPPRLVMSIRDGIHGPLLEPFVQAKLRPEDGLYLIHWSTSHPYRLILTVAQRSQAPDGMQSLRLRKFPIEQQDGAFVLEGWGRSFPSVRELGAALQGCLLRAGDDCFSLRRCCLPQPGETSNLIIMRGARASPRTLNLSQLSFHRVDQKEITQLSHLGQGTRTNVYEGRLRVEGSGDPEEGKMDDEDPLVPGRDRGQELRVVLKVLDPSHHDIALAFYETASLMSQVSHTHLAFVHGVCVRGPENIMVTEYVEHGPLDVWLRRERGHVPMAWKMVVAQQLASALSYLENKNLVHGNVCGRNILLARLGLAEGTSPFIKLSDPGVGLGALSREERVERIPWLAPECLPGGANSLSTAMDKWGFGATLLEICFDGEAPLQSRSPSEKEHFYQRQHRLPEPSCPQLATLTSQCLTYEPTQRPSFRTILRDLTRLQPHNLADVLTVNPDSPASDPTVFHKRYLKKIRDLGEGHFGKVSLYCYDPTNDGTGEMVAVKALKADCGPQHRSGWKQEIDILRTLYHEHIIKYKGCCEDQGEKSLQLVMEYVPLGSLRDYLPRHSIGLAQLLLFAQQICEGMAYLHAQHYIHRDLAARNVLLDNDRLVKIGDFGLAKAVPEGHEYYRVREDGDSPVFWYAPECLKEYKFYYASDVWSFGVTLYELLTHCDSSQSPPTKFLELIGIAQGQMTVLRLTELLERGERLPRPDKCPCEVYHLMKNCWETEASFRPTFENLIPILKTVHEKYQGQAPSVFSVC

Chain of JAK1 (P23458 whole entry): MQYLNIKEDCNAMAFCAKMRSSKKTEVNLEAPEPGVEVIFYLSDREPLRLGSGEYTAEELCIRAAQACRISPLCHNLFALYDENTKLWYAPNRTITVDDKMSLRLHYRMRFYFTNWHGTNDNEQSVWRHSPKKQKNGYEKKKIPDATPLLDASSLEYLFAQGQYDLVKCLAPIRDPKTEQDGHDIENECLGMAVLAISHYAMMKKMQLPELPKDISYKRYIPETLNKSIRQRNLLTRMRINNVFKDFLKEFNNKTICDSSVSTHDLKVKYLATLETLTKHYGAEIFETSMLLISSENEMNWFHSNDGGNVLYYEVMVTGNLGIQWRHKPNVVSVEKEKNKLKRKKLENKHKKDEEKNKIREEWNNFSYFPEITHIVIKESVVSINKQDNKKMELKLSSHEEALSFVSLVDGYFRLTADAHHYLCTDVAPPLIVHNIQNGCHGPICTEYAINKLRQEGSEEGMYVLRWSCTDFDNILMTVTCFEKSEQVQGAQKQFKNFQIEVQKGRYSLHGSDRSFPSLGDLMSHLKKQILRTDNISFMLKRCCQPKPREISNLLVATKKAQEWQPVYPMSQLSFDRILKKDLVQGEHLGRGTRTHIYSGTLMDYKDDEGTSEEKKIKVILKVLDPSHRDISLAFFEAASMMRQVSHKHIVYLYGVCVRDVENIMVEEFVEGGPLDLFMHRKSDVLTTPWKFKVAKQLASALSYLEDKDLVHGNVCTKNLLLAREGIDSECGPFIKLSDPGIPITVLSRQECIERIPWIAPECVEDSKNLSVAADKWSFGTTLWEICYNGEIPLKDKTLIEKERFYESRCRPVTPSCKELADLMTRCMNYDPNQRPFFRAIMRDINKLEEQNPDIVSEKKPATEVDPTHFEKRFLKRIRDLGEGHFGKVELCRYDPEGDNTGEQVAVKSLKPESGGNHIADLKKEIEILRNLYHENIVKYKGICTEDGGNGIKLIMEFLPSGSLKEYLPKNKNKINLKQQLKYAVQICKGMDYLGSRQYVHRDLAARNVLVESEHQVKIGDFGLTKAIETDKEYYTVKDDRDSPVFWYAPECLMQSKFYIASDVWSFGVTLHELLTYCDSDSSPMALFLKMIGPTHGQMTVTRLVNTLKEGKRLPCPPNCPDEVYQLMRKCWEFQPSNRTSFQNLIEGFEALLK
Chain of JAK3 (P52333 whole entry): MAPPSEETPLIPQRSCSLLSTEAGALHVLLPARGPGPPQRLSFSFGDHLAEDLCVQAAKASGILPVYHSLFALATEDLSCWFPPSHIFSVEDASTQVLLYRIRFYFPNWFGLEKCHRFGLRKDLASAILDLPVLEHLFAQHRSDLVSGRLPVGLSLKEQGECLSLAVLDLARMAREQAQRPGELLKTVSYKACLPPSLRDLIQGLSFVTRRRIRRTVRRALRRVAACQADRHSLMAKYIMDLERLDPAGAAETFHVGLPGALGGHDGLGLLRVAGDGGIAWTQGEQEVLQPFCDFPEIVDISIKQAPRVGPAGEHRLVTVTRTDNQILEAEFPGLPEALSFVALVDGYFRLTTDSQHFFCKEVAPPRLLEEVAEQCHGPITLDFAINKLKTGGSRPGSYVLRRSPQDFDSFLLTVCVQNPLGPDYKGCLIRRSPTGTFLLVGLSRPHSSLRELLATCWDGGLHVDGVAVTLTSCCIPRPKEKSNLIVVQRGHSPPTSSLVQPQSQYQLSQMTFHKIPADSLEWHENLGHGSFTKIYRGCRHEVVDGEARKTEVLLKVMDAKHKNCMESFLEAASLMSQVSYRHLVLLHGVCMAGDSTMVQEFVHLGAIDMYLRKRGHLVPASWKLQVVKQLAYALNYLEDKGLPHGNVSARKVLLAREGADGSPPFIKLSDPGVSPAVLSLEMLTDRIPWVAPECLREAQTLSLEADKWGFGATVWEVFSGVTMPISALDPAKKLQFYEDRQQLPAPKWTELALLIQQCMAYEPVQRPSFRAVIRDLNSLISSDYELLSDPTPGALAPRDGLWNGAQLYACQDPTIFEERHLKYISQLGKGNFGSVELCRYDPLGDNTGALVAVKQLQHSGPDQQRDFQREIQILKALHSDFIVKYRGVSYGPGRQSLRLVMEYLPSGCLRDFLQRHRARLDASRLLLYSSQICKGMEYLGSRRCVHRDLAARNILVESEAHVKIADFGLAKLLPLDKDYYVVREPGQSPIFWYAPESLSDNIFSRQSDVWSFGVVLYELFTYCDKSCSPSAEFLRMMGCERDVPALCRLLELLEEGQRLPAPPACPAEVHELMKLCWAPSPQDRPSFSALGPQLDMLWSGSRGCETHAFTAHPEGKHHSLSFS

CNC(=O)c1n[nH]c2cc(-c3cc(F)c(O)cc3CC(F)(F)F)nc(NCc3c(F)cccc3N(C)S(C)(=O)=O)c12 [Example 18, 6-[5-fluoro-4-hydroxy-2-(2,2,2-trifluoroethyl)phenyl]-4-({2-fluoro-6-[methyl(methylsulfonyl)amino]benzyl}amino)-N-methyl-1H-pyrazolo[4,3-c]pyridine-3-carboxamide]
IC50 ([1]; Homo sapiens): 97 nM | IC50 (JAK1): 4 nM | IC50 (JAK3): 73 nM | IC50 (TYK2): 31 nM

CCNC(=O)c1n[nH]c2cc(-c3cc(F)c(O)cc3CC(F)(F)F)nc(NCc3nccnc3N(CC)S(C)(=O)=O)c12 [Example 46, N-ethyl-4-[({3-[ethyl(methylsulfonyl)amino]pyrazin-2-yl}methyl)amino]-6-[5-fluoro-4-hydroxy-2-(2,2,2-trifluoroethyl)phenyl]-1H-pyrazolo[4,3-c]pyridine-3-carboxamide]
IC50 (JAK1): 32.9 nM | IC50 (JAK3): 179 nM

CCN(c1ccccc1CNc1nc(-c2cc(F)c(O)cc2CC(F)(F)F)nc2[nH]nc(C(=O)NC)c12)S(C)(=O)=O [Example 103, 4-((2-(N-ethylmethylsulfonamido)benzyl)amino)-6-(5-fluoro-4-hydroxy-2-(2,2,2-trifluoroethyl)-phenyl)-N-methyl-1H-pyrazolo[3,4-d]pyrimidine-3-carboxamide]
IC50 ([1]; Homo sapiens): 235 nM

CNC(=O)c1n[nH]c2nc(-c3cc(F)c(O)cc3CC(F)(F)F)nc(NCc3cc(F)ccc3N(C)S(C)(=O)=O)c12 [Example 104, 4-((5-fluoro-2-(N-methylmethylsulfonamido)benzyl)amino)-6-(5-fluoro-4-hydroxy-2-(2,2,2-trifluoroethyl)phenyl)-N-methyl-1H-pyrazolo[3,4-d]pyrimidine-3-carboxamide]
IC50 ([1]; Homo sapiens): 292 nM

CNC(=O)c1n[nH]c2nc(-c3cc(F)c(O)cc3CC(F)(F)F)nc(NCc3cc(O)ccc3N(C)S(=O)(=O)c3ccccc3)c12 [Example 106, 4-((2-(N-Methylphenylsulfonamido)-5-hydroxybenzyl)amino)-6-(5-fluoro-4-hydroxy-2-(2,2,2-trifluoroethyl)phenyl)-N-methyl-1H-pyrazolo[3,4-d]pyrimidine-3-carboxamide]
IC50 ([1]; Homo sapiens): 2520 nM

CCN(c1ccc(O)cc1CNc1nc(-c2cc(F)c(O)cc2CC(F)(F)F)nc2[nH]nc(C(N)=O)c12)S(=O)(=O)c1ccccc1 [Example 107, 4-((2-(N-ethylphenylsulfonamido)-5-hydroxybenzyl)amino)-6-(5-fluoro-4-hydroxy-2-(2,2,2-trifluoroethyl)phenyl)-1H-pyrazolo[3,4-d]pyrimidine-3-carboxamide]
IC50 ([1]; Homo sapiens): 899 nM

CN(c1ccc(O)cc1CNc1nc(-c2cc(F)c(O)cc2CC(F)(F)F)nc2[nH]nc(C(N)=O)c12)S(=O)(=O)c1ccccc1 [Example 108, 4-((2-(N-methylphenylsulfonamido)-5-hydroxybenzyl)amino)-6-(5-fluoro-4-hydroxy-2-(2,2,2-trifluoroethyl)phenyl)-1H-pyrazolo[3,4-d]pyrimidine-3-carboxamide]
IC50 ([1]; Homo sapiens): 1500 nM

CNC(=O)c1n[nH]c2nc(-c3cc(F)c(O)cc3CC(F)(F)F)nc(NCc3ccccc3N(C)S(=O)(=O)NC)c12 [Example 110, 6-(5-Fluoro-4-hydroxy-2-(2,2,2-trifluoroethyl)phenyl)-N-methyl-4-((2-(methyl(N-methylsulfamoyl)amino)benzyl)amino)-1H-pyrazolo[3,4-d]pyrimidine-3-carboxamide]
IC50 ([1]; Homo sapiens): > 10000 nM

CCc1cc(O)ccc1-c1cc2[nH]ncc2c(N2CCc3c(cccc3C(=O)NCc3ccccc3)C2)n1 [Example 117, N-benzyl-2-[6-(2-ethyl-4-hydroxyphenyl)-1H-pyrazolo[4,3-c]pyridin-4-yl]-1,2,3,4-tetrahydroisoquinoline-5-carboxamide formate]
IC50 (JAK3): 41.6 nM | IC50 (TYK2): 425 nM

CCc1cc(O)c(F)cc1-c1cc2[nH]ncc2c(N(CCc2ccc(OC)c(OC)c2)Cc2ccccc2N(C)S(C)(=O)=O)n1 [Example 129, N-[2-({[2-(3,4-dimethoxyphenyl)ethyl][6-(2-ethyl-5-fluoro-4-hydroxyphenyl)-1H-pyrazolo[4,3-c]pyridin-4-yl]amino}methyl)phenyl]-N-methylmethanesulfonamide hydrochloride]
IC50 ([1]; Homo sapiens): 62.4 nM

CCc1cc(O)c(F)cc1-c1cc2[nH]ncc2c(NCc2ccccc2N(C)S(=O)(=O)CC)n1 [Example 135, N-[2-({[6-(2-ethyl-5-fluoro-4-hydroxyphenyl)-1H-pyrazolo[4,3-c]pyridin-4-yl]amino}methyl)-phenyl]-N-methylethanesulfonamide hydrochloride]
IC50 ([1]; Homo sapiens): 3.3 nM

CCc1cc(O)c(F)cc1-c1cc2[nH]ncc2c(NCc2ccccc2N(CC)S(=O)(=O)CC)n1 [Example 136, N-ethyl-N-[2-({[6-(2-ethyl-5-fluoro-4-hydroxyphenyl)-1H-pyrazolo[4,3-c]pyridin-4-yl]amino}-methyl)phenyl]ethanesulfonamide hydrochloride]
IC50 ([1]; Homo sapiens): 13.3 nM

CCCCN(c1ccccc1CNc1nc(-c2cc(F)c(O)cc2CC)cc2[nH]ncc12)S(C)(=O)=O [Example 139, N-butyl-N-[2-({[6-(2-ethyl-5-fluoro-4-hydroxyphenyl)-1H-pyrazolo[4,3-c]pyridin-4-yl]amino}-methyl)phenyl]methanesulfonamide]
IC50 (JAK1): 8.5 nM

CN(c1ccccc1CNc1nc(-c2cc(F)c(O)cc2CC(F)(F)F)cc2[nH]ncc12)S(C)(=O)=O [Example 148, N-{2-[({6-[5-Fluoro-4-hydroxy-2-(2,2,2-trifluoroethyl)phenyl]-1H-pyrazolo[4,3-c]pyridin-4-yl}amino)methyl]phenyl}-N-methylmethanesulfonamide]
IC50 ([1]; Homo sapiens): 14.9 nM

Oc1cc(CC(F)(F)F)c(-c2nc(NCC3CC3)c3cn[nH]c3n2)cc1F [Example 151, 4-{4-[(cyclopropylmethyl)amino]-1H-pyrazolo[3,4-d]pyrimidin-6-yl}-2-fluoro-5-(2,2,2-trifluoroethyl)phenol]
IC50 ([1]; Homo sapiens): 133 nM

Oc1cc(CC(F)(F)F)c(-c2nc(NCCC3CC3)c3cn[nH]c3n2)cc1F [Example 152, 4-{4-[(2-cyclopropylethyl)amino]-1H-pyrazolo[3,4-d]pyrimidin-6-yl}-2-fluoro-5-(2,2,2-trifluoroethyl)phenol]
IC50 ([1]; Homo sapiens): 133 nM

CCc1cc(O)c(F)cc1-c1nc(NCc2ccccc2N(C)S(C)(=O)=O)c2cn[nH]c2n1 [Example 155, N-[2-({[6-(2-Ethyl-5-fluoro-4-hydroxyphenyl-1H-pyrazolo[3,4-d]pyrimidin-4-yl]amino}methyl)phenyl]-N-methylmethanesulfonamide hydrochloride]
IC50 [1]: 30.1 nM

CCc1cc(O)cc(C)c1-c1cc2[nH]ncc2c(NCc2ccccc2N(C)S(C)(=O)=O)n1 [Example 156]
IC50 [1]: 72.4 nM

CCc1cc(O)c(F)cc1-c1cc2[nH]nc(-c3ncc[nH]3)c2c(NCc2ccccc2N(C)S(C)(=O)=O)n1 [Example 157, N-[2-({[6-(2-Ethyl-5-fluoro-4-hydroxyphenyl)-3-(1H-imidazol-2-yl)-1H-pyrazolo[4,3-c]pyridin-4-yl]amino}methyl)phenyl]-N-methylmethanesulfonamide]
IC50 ([1]; Homo sapiens): 26.2 nM

CCc1cc(O)c(F)cc1-c1cc2[nH]nc(-c3nc(C)c(C)[nH]3)c2c(NCc2ccccc2N(C)S(C)(=O)=O)n1 [Example 158]
IC50 [1]: 31.3 nM

CCc1cc(O)c(F)cc1-c1cc2[nH]nc(-c3nc(C)c[nH]3)c2c(NCc2ccccc2N(C)S(C)(=O)=O)n1 [Example 159, N-[2-({[6-(2-Ethyl-5-fluoro-4-hydroxyphenyl)-3-(4-methyl-1H-imidazol-2-yl)-1H-pyrazolo[4,3-c]pyridin-4-yl]amino}methyl)phenyl]-N-methylmethanesulfonamide]
IC50 ([1]; Homo sapiens): 18.7 nM

CCc1cc(O)c(F)cc1-c1cc2[nH]nc(-n3cccn3)c2c(NCc2ccccc2N(C)S(C)(=O)=O)n1 [Example 162, N-[2-({[6-(2-Ethyl-5-fluoro-4-hydroxyphenyl)-3-(1H-pyrazol-1-yl)-1H-pyrazolo[4,3-c]pyridin-4-yl]amino}methyl)phenyl]-N-methylmethanesulfonamide]
IC50 ([1]; Homo sapiens): 20 nM

CN(c1ccccc1CNc1nc(-c2cc(F)c(O)cc2CC(F)(F)F)cc2[nH]nc(-n3cccn3)c12)S(C)(=O)=O [Example 163, N-{2-[({6-[5-Fluoro-4-hydroxy-2-(2,2,2-trifluoroethyl)phenyl]-3-(1H-pyrazol-1-yl)-1H-pyrazolo[4,3-c]pyridin-4-yl}amino)methyl]phenyl}-N-methylmethanesulfonamide]
IC50 ([1]; Homo sapiens): 98.6 nM

CN(c1ccc(O)cc1CNc1nc(-c2cc(F)c(O)cc2CC(F)(F)F)nc2[nH]nc(-c3nnc(C4CCN(C(N)=O)CC4)[nH]3)c12)S(C)(=O)=O [Example 167, 4-(5-{6-[5-Fluoro-4-hydroxy-2-(2,2,2-trifluoroethyl)phenyl]-4-({5-hydroxy-2-[methyl(methylsulfonyl)amino]benzyl}amino)-1H-pyrazolo[3,4-d]pyrimidin-3-yl}-4H-1,2,4-triazol-3-yl)piperidine-1-carboxamide]
IC50 ([1]; Homo sapiens): > 10000 nM

CN(c1ccccc1CNc1nc(-c2cc(F)c(O)cc2CC(F)(F)F)nc2[nH]nc(-c3nnc(C4CCN(C(=O)CN5CCCC5)CC4)[nH]3)c12)S(C)(=O)=O [Example 168, N-(2-{[(6-[5-Fluoro-4-hydroxy-2-(2,2,2-trifluoroethyl)phenyl]-3-{5-[1-(pyrrolidin-1-ylacetyl)piperidin-4-yl]-4H-1,2,4-triazol-3-yl}-1H-pyrazolo[3,4-d]pyrimidin-4-yl)amino]methyl}phenyl)-N-methylmethanesulfonamide]
IC50 ([1]; Homo sapiens): 1330 nM

CC(CO)CNc1nc(-c2cc(F)c(O)cc2CC(F)(F)F)nc2[nH]nc(-c3nc4c([nH]3)CCN(Cc3ccccc3)C4)c12 (stereo not shown) [Example 173, 4-(3-(5-Benzyl-4,5,6,7-tetrahydro-1H-imidazo[4,5-c]pyridin-2-yl)-4-((3-hydroxy-2-methylpropyl)amino)-1H-pyrazolo[3,4-d]pyrimidin-6-yl)-2-fluoro-5-(2,2,2-trifluoroethyl)phenol]
IC50 ([1]; Homo sapiens): 220 nM
